The values that follow come from patent publication US10717735B2, “Solid forms of a compound for modulating kinases” (Plexxikon Inc., priority 2017, dated 2020).

One may read the solubility as how much of the substance goes into solution per volume.

Converted amounts (≈) assume the structure as drawn. Where two headings read alike, the source gives them in different places.

The test system of series [1] is pre-clinical models of CLL. The settings on record: in vitro and in vivo; cited from earlier work.
The next series deals with uveal melanoma (UM). The note with it: mouse xenograft models of uveal melanoma; cited from earlier work.
A short description of series [2]: Solubility estimates by solvent aliquot addition, visual observation. The format is physicochemical. On the procedure:
Aliquots of various solvents were added to measured amounts of Compound I or forms of Compound I as described herein with agitation (typically sonication) at ambient temperature until complete dissolution was achieved, as judged by visual observation. Solubilities were calculated based on the total solvent used to give a solution; actual solubilities may be greater because of the volume of solvent portions utilized or a slow rate of dissolution. […] If dissolution occurred at the first aliquot the value was reported as “>”.

Series [3] is described as follows: Dynamic vapor sorption (DVS). Format: physicochemical. The settings on record: from about 5% to about 95% RH. On the procedure: Dynamic Vapor […] DVS data were collected on a VTI SGA-100 Vapor Sorption Analyzer. NaCl and PVP were used as calibration standards. Samples were not dried prior to analysis. Adsorption and desorption data were collected over a range from 5 to 95% RH at 10% RH increments under a nitrogen purge. The equilibrium criterion used for analysis was less than 0.0100% weight change in 5 minutes with a maximum equilibration time of 3 hours. Data were not corrected for the initial moisture content of the samples.

Series [4] concerns adaptive transfer model of Eμ-TCL1. The series can be described thus: Adaptive transfer model of Eμ-TCL1, treatment at leukemia onset. The format is in vivo, wild type mice. The settings on record: 20 mg/kg, qd. On the procedure: (§1) FIG. 24 panels D-G: using an adaptive transfer model of Eμ-TCL1, recipient wild type mice were randomized to receive vehicle (n=12) or Compound I Free Acid Amorphous (20 mg/kg, qd, oral gavage, n=10) at leukemia onset and disease progression was measured by flow cytometry as % CD19/CD5/CD45 positive PBL. Treatment was ended at 150 days. FIG. 24D is a Kaplan-Meier curve showing overall survival (OS) (p<0.0001), with the median OS for Compound I Free Acid Amorphous and the vehicle being 93 days and 34 days, respectively. Survival comparisons for FIG. 24D were made with the log-rank test, and p-values were adjusted for multiple comparisons. Compound I Free Acid Amorphous decreased the percentage of circulating leukemic PBL (FIG. 24E), and reduced spleen mass (FIG. 24F).
as §1, with “Using” for “FIG. 24 panels D-G: using”

Series [5] concerns Eμ-TCL1 with advanced leukemia. Briefly: Pharmacodynamic evaluation of antitumor effects in Eμ-TCL1 with advanced leukemia. The note with it: 20 mg/kg, qd, oral gavage, 8 days. The format is in vivo, Mice. The protocol: FIG. 24 panels A-C illustrate data related to the pharmacodynamic evaluation of antitumor effects of Compound I Free Acid Amorphous in Eμ-TCL1 with advanced leukemia. Mice were stratified according to leukemic peripheral blood lymphocytes (PBLs) and spleen palpation score to receive either vehicle or Compound I Free Acid Amorphous (20 mg/kg, qd, oral gavage) for 8 days. […] FIG. 24C is a representative immunoblot analysis of relative protein levels of cMYC, P21, BTK, IKZF1, IKZF3 and TCL1A protein at the end of the 8 day study. […] Mice were stratified according to leukemic peripheral blood lymphocytes (PBLs) and spleen palpation score to receive either vehicle or Compound I Free Acid Amorphous (20 mg/kg, qd, oral gavage) for 8 days. […] FIG. 24C is a representative immunoblot analysis of relative protein levels of cMYC, P21, BTK, IKZF1, IKZF3 and TCL1A protein at the end of the 8 day study.

The subject of series [6] is Eμ-TCL1 leukemic splenocytes. The series can be described thus: Survival of mice engrafted with Eμ-TCL1 leukemic splenocytes, comparison with Ibrutinib. The format is in vivo, C57BL/6 mice. The settings on record: 20 mg/kg, qd; for median overall survival (OS): oral gavage at leukemia onset, vehicle 21 days (FIG. 24H). On the procedure: FIG. 24H is a Kaplan-Meier curve showing overall survival for C57BL/6 mice engrafted with Eμ-TCL1 leukemic splenocytes treated with Ibrutinib or Compound I Free Acid Amorphous (20 mg/kg, qd, oral gavage) at leukemia onset, where the median OS is: 41 days (Compound I Free Acid Amorphous, n=7), 32 days (Ibrutinib, n=8) and 21 days (vehicle, n=7). […] Survival comparisons for FIG. 24H were made with the log-rank test, and p-values were adjusted for multiple comparisons.
FIG. 24H is a Kaplan-Meier curve showing overall survival (OS) for C57BL/6 mice engrafted with Eμ-TCL1 leukemic splenocytes treated with Ibrutinib or Compound I Free Acid Amorphous (Cmpd. I FAA) (20 mg/kg, qd, oral gavage) at leukemia onset. Survival comparisons for FIG. 24H were made with the log-rank test, and p-values were adjusted for multiple comparisons.
Ibrutinib is currently the standard of care (first-in-line) treatment.

Setting [7] is: methanol (MeOH), ambient temperature.

As for `Cc1noc(C)c1-c1cnc2c(-c3ccc(C(=O)O)cc3)cn([C@@H](C)c3ccccn3)c2c1` [Compound I, 4-(6-(3,5-dimethylisoxazol-4-yl)-1-[(1S)-1-(2-pyridyl)ethyl]pyrrolo[3,2-b]pyridin-3-yl) benzoic acid], the “efficacy relative to B-cell receptor (BCR) signaling agents” value in series [1] is reported as “emulatesor exceeds the efficacy of B-cell receptor (BCR) signaling agents”. The tumor growth entry in the series with uveal melanoma (UM) is on record as “significantly inhibited tumor growth”. The solubility in series [2] (acetone, organic solvent or mixture, thermodynamic from solid, Acetone, read-out: Solubility) is 3000 µg/mL (≈ 6.84 mM); in series [2] (acetonitrile, organic solvent or mixture, thermodynamic from solid, Acetonitrile, read-out: Solubility), < 1000 µg/mL; in series [2] (dichloromethane, organic solvent or mixture, thermodynamic from solid, Dichloromethane, read-out: Solubility), < 1000 µg/mL; in series [2] (dimethyl sulfoxide, organic solvent or mixture, thermodynamic from solid, Dimethyl sulfoxide, read-out: Solubility), > 93000 µg/mL; in series [2] (ethanol, organic solvent or mixture, thermodynamic from solid, Ethanol, read-out: Solubility) it was < 1000 µg/mL; in series [2] (ethyl acetate, organic solvent or mixture, thermodynamic from solid, Ethyl acetate, read-out: Solubility), < 1000 µg/mL. Besides, the solubility in series [2] (isopropanol, organic solvent or mixture, thermodynamic from solid, Isopropanol, read-out: Solubility) is < 1000 µg/mL; in series [2] (methanol, organic solvent or mixture, thermodynamic from solid, Methanol, read-out: Solubility) it was 1000 µg/mL (≈ 2.28 mM); in series [2] (tetrahydrofuran, organic solvent or mixture, thermodynamic from solid, Tetrahydrofuran, read-out: Solubility), 19000 µg/mL (≈ 43.3 mM); in series [2] (water, thermodynamic from solid, Water, read-out: Solubility) it was < 1000 µg/mL.
As to `Cc1noc(C)c1-c1cnc2c(-c3ccc(C(=O)O)cc3)cn([C@@H](C)c3ccccn3)c2c1` [Compound I Form D, 4-(6-(3,5-dimethylisoxazol-4-yl)-1-[(1S)-1-(2-pyridyl)ethyl]pyrrolo[3,2-b]pyridin-3-yl)benzoic acid], the “solubility” value in series [2] (acetone, ambient temperature) is 4000 µg/mL (≈ 9.12 mM); in series [2] (acetonitrile (ACN), ambient temperature), <3000 µg/mL; in series [2] (chloroform, organic solvent or mixture, thermodynamic from solid, chloroform, ambient temperature, read-out: Solubility) it was > 59000 µg/mL; in series [2] (dichloromethane (DCM), ambient temperature), 24000 µg/mL (≈ 54.7 mM); in series [2] (diethyl ether, organic solvent or mixture, thermodynamic from solid, diethyl ether, ambient temperature, read-out: Solubility) it was < 2000 µg/mL; in series [2] (dioxane, organic solvent or mixture, thermodynamic from solid, dioxane, ambient temperature, read-out: Solubility), < 2000 µg/mL. For the same compound, the solubility is 9000 µg/mL (≈ 20.5 mM) in series [2] (ethanol, organic solvent or mixture, thermodynamic from solid, ethanol (EtOH), ambient temperature, read-out: Solubility); < 2000 µg/mL in series [2] (ethyl acetate, organic solvent or mixture, thermodynamic from solid, ethyl acetate (EtOAc), ambient temperature, read-out: Solubility); 4000 µg/mL (≈ 9.12 mM) in series [2] (isopropyl alcohol, organic solvent or mixture, thermodynamic from solid, isopropyl alcohol (IPA), ambient temperature, read-out: Solubility); >72000 µg/mL in series [2] (setting [7]); 4000 µg/mL (≈ 9.12 mM) in series [2] (tetrahydrofuran, organic solvent or mixture, thermodynamic from solid, tetrahydrofuran (THF), ambient temperature, read-out: Solubility); <2000 µg/mL in series [2] (toluene, ambient temperature). For the same compound, the solubility in series [2] (water, thermodynamic from solid, water, ambient temperature, read-out: Solubility) is 23000 µg/mL (≈ 52.5 mM).
`Cc1noc(C)c1-c1cnc2c(-c3ccc(C(=O)O)cc3)cn([C@@H](C)c3ccccn3)c2c1` [Compound I Form A, 4-(6-(3,5-dimethylisoxazol-4-yl)-1-[(1S)-1-(2-pyridyl)ethyl]pyrrolo[3,2-b]pyridin-3-yl)benzoic acid]: the DVS weight gain entry in series [3] is “about 0.8%”. In addition, the “solubility” value in series [2] (acetone, ambient temperature) was 36000 µg/mL (≈ 82.1 mM); in series [2] (acetonitrile, organic solvent or mixture, thermodynamic from solid, acetonitrile (ACN), ambient temperature, read-out: Solubility) it was 6000 µg/mL (≈ 13.7 mM); in series [2] (dichloromethane, organic solvent or mixture, thermodynamic from solid, dichloromethane (DCM), ambient temperature, read-out: Solubility) it was 12000 µg/mL (≈ 27.4 mM); in series [2] (setting [7]), 6000 µg/mL (≈ 13.7 mM); in series [2] (toluene, organic solvent or mixture, thermodynamic from solid, toluene, ambient temperature, read-out: Solubility), < 4000 µg/mL.
As for `Cc1noc(C)c1-c1cnc2c(-c3ccc(C(=O)O)cc3)cn([C@@H](C)c3ccccn3)c2c1` [Compound I Free Acid Amorphous, 4-(6-(3,5-dimethylisoxazol-4-yl)-1-[(1S)-1-(2-pyridyl)ethyl]pyrrolo[3,2-b]pyridin-3-yl)benzoic acid], in series [4] (oral gavage (FIG. 24F)), the spleen mass result was “reduced”. Further, in series [4] (oral gavage (FIG. 24G)), the “HE staining of spleen, lung and blood: lymphocytes” value was “depleted of lymphocytes”; the “Ki67 staining of spleen, lung and blood” value is reported as “mostly absent”. Besides, the “median overall survival (OS)” value in series [4] (oral gavage at leukemia onset, vehicle 34 days, p<0.0001 (FIG. 24D)) turned out to be 93 days. Moreover, in series [4] (oral gavage, % CD19/CD5/CD45 positive PBL by flow cytometry (FIG. 24E)), the “percentage of circulating leukemic PBL” value was “decreased”. Moreover, the “leukemic cells in systemic circulation” value in series [5] (vs vehicle (FIG. 24A)) is recorded as “reduced”. Also, the “leukemic cells locally in spleen” value in series [5] (vs vehicle (FIG. 24B)) is given as “reduced”. Also, in series [6], the “median overall survival (OS)” value is 41 days. Further, in series [6] (oral gavage, log-rank test), the “survival compared with vehicle (p=0.024) and Ibrutinib (p=0.049)” value is listed as “significantly increased survival”.
Take `C=CC(=O)N1CCC[C@@H](n2nc(-c3ccc(Oc4ccccc4)cc3)c3c(N)ncnc32)C1` [Ibrutinib, reference compound]: the “median overall survival (OS)” value in series [6] is listed as 32 days.
